Laboratory results published in the supplement of paper PMC10627819.

Assays:
S. pneumoniae D39V [1] = test: fitness (endpoint OD595 vs no drug) (fraction); higher = more growth
How it was run: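 Cultures at OD595 0.01 were dispensed into 384-well plates in TSB, LB Lennox or CY and incubated at 37 °C. Every 30 min for 14 h, OD595 was read and corrected by the first reading. Fitness is the optical density at entry into stationary phase relative to the robust mean of no-drug control wells, capped at 1.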

B. subtilis 168 = test: Bliss interaction score (quartile over a dose matrix) (fitness difference); higher = more antagonism (negative = synergy)
How it was run: (§1)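 Quartiles summarise the Bliss score over technical, biological and donor/recipient replicates, where the score is observed minus expected fitness under a product model. Expected fitness uses single-drug values inferred from combination data. Fitness is OD595 at entry into stationary phase over the plate's robust no-drug mean, capped at 1.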

S. aureus DSM 20231 = test: as above
How it was run: as §1

S. aureus Newman = test: as above
How it was run: as §1

S. pneumoniae D39V [2] = test: as above
How it was run: as §1
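Throughout, for Bliss interaction score (quartile over a dose matrix): first quartile when negative (synergy) and third quartile when positive (antagonism).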

COc1cccc2c1C(=O)c1c(O)c3c(c(O)c1C2=O)C[C@@](O)(C(=O)CO)C[C@@H]3O[C@H]1C[C@H](N)[C@H](O)[C@H](C)O1 [Doxorubicin] + Clc1ccc(COC(Cn2ccnc2)c2ccc(Cl)cc2Cl)c(Cl)c1 [Miconazole]
fitness, S. pneumoniae D39V [1]
Details | partner 1.073 µg/mL | partner 1.25 µg/mL | partner 2.145 µg/mL | partner 2.5 µg/mL | partner 4.29 µg/mL | partner 5 µg/mL
first compound 0.25 µg/mL | 0.953 | 0.921 | 0.921 | 0.949 | 0.646 | 0.947
first compound 0.5 µg/mL | 0.967 | 0.967 | 0.978 | 0.966 | 0.848 | 0.983
first compound 1 µg/mL | 0.961 | 0.845 | 0.914 | 0.901 | 0.791 | 0.921

Details | Bliss interaction score
B. subtilis 168 | 0.0755
S. aureus DSM 20231 | -0.0766
S. aureus Newman | -0.074
S. pneumoniae D39V [2] | 0.0804

COc1ccc(C[C@H](N)C(=O)N[C@H]2[C@@H](O)[C@H](n3cnc4c(N(C)C)ncnc43)O[C@@H]2CO)cc1 [Puromycin] + CO[C@H]1/C=C/O[C@@]2(C)Oc3c(C)c(O)c4c(O)c(c(/C=N/N5CCN(C)CC5)c(O)c4c3C2=O)NC(=O)/C(C)=C\C=C\[C@H](C)[C@H](O)[C@@H](C)[C@@H](O)[C@@H](C)[C@H](OC(C)=O)[C@@H]1C [Rifampicin]
S. pneumoniae D39V [1], partner 0.025 µg/mL, one replicate
Details | fitness
first compound 1 µg/mL | 0.914
first compound 2 µg/mL | 0.856
first compound 4 µg/mL | 0.691

fitness, S. pneumoniae D39V [1]
Details | first compound 1 µg/mL | first compound 2 µg/mL | first compound 4 µg/mL
partner 0.05 µg/mL | 0.747 | 0.753 | –
partner 0.2 µg/mL | 0.135 | 0.0783 | 0.0597

Details | Bliss interaction score
B. subtilis 168 | 0.0301
S. aureus DSM 20231 | 0.0391
S. aureus Newman | 0.0233
S. pneumoniae D39V [2] | -0.0708

COc1cccc2c1C(=O)c1c(O)c3c(c(O)c1C2=O)C[C@@](O)(C(=O)CO)C[C@@H]3O[C@H]1C[C@H](N)[C@H](O)[C@H](C)O1 [Doxorubicin] + C[C@@H](O)[C@H]1C(=O)N2C(C(=O)O)=C(SCCNC=N)C[C@H]12 [Imipenem]
fitness, S. pneumoniae D39V [1]
Details | partner 0.005 µg/mL | partner 0.0065 µg/mL | partner 0.01 µg/mL | partner 0.013 µg/mL | partner 0.02 µg/mL | partner 0.026 µg/mL
first compound 0.25 µg/mL | 0.954 | 0.913 | 0.958 | 0.836 | 0.949 | 0.831
first compound 0.5 µg/mL | 0.981 | 0.858 | 0.958 | 0.844 | 0.971 | 0.842
first compound 1 µg/mL | 0.909 | 0.858 | 0.877 | 0.894 | 0.872 | 0.789

Details | Bliss interaction score
B. subtilis 168 | -0.197
S. aureus DSM 20231 | -0.0485
S. aureus Newman | -0.0256
S. pneumoniae D39V [2] | 0.0651

C[C@H]1c2cccc(O)c2C(=O)C2=C(O)[C@]3(O)C(=O)C(C(N)=O)=C(O)[C@@H](N(C)C)[C@@H]3[C@@H](O)[C@@H]21 [Doxycycline] + CN[C@H](CC(C)C)C(=O)N[C@H]1C(=O)N[C@@H](CC(N)=O)C(=O)N[C@H]2C(=O)N[C@H]3C(=O)N[C@H](C(=O)N[C@H](C(=O)O)c4cc(O)cc(O)c4-c4cc3ccc4O)[C@H](O)c3ccc(c(Cl)c3)Oc3cc2cc(c3O[C@@H]2O[C@H](CO)[C@@H](O)[C@H](O)[C@H]2O[C@H]2C[C@](C)(N)[C@H](O)[C@H](C)O2)Oc2ccc(cc2Cl)[C@H]1O [Vancomycin]
fitness, S. pneumoniae D39V [1], one replicate
Details | first compound 0.003875 µg/mL | first compound 0.00775 µg/mL | first compound 0.031 µg/mL | first compound 0.062 µg/mL
partner 0.125 µg/mL | 0.882 | 0.989 | – | –
partner 0.25 µg/mL | 0.29 | 0.571 | 0.753 | 0.629
partner 0.5 µg/mL | 0.0216 | 0.0253 | 0.128 | 0.0893

fitness, S. pneumoniae D39V [1]
Details | partner 0.03125 µg/mL | partner 0.0625 µg/mL | partner 0.125 µg/mL | partner 0.25 µg/mL | partner 0.5 µg/mL
first compound 0.0155 µg/mL | 0.903 | 0.876 | 0.913 | 0.802 | 0.105
first compound 0.031 µg/mL | 0.838 | 0.79 | 0.767 | – | –
first compound 0.062 µg/mL | 0.84 | 0.783 | – | – | –

Details | Bliss interaction score
B. subtilis 168 | 0.0535
S. aureus DSM 20231 | 0.0785
S. aureus Newman | 0.0371
S. pneumoniae D39V [2] | 0.101

O=C(O)c1cn(C2CC2)c2cc(N3CCNCC3)c(F)cc2c1=O [Ciprofloxacin] + O=C1CN(/N=C/c2ccc([N+](=O)[O-])o2)C(=O)N1 [Nitrofurantoin]
fitness, S. pneumoniae D39V [1]
Details | partner 1.285 µg/mL | partner 2 µg/mL | partner 2.57 µg/mL | partner 4 µg/mL | partner 8 µg/mL
first compound 0.125 µg/mL | 0.921 | 0.914 | 0.932 | 0.906 | 0.692
first compound 0.25 µg/mL | 0.895 | – | 0.903 | – | –
first compound 0.5 µg/mL | 0.704 | – | 0.72 | – | 0.437

fitness, S. pneumoniae D39V [1], one replicate
Details | partner 2 µg/mL | partner 4 µg/mL | partner 5.14 µg/mL | partner 8 µg/mL
first compound 0.125 µg/mL | – | – | 0.877 | –
first compound 0.25 µg/mL | 0.731 | 0.679 | 0.879 | 0.56
first compound 0.5 µg/mL | – | – | 0.627 | –

Details | Bliss interaction score
B. subtilis 168 | 0.129
S. aureus DSM 20231 | 0.0292
S. aureus Newman | -0.0569
S. pneumoniae D39V [2] | 0.106

C[C@H]1c2cccc(O)c2C(=O)C2=C(O)[C@]3(O)C(=O)C(C(N)=O)=C(O)[C@@H](N(C)C)[C@@H]3[C@@H](O)[C@@H]21 [Doxycycline] + Clc1ccc(COC(Cn2ccnc2)c2ccc(Cl)cc2Cl)c(Cl)c1 [Miconazole]
fitness, S. pneumoniae D39V [1], one replicate
Details | first compound 0.003875 µg/mL | first compound 0.00775 µg/mL | first compound 0.031 µg/mL | first compound 0.062 µg/mL
partner 1.25 µg/mL | 0.936 | 0.934 | 0.852 | 0.731
partner 2.5 µg/mL | 0.925 | 0.964 | 0.878 | 0.74
partner 5 µg/mL | 0.954 | 0.96 | 0.854 | 0.689

fitness, S. pneumoniae D39V [1]
Details | partner 1.073 µg/mL | partner 1.25 µg/mL | partner 2.145 µg/mL | partner 2.5 µg/mL | partner 4.29 µg/mL | partner 5 µg/mL
first compound 0.0155 µg/mL | 0.947 | 0.923 | 0.96 | 0.936 | 0.895 | 0.911
first compound 0.031 µg/mL | 0.937 | – | 0.95 | – | 0.912 | –
first compound 0.062 µg/mL | 0.895 | – | 0.908 | – | 0.835 | –

Details | Bliss interaction score
B. subtilis 168 | 0.0453
S. aureus DSM 20231 | 0.0575
S. aureus Newman | -0.0138
S. pneumoniae D39V [2] | 0.0669

Cc1ncc([N+](=O)[O-])n1CCO [Metronidazole] + O=C1CN(/N=C/c2ccc([N+](=O)[O-])o2)C(=O)N1 [Nitrofurantoin]
fitness, S. pneumoniae D39V [1]
Details | first compound 1.073 µg/mL | first compound 1.25 µg/mL | first compound 2.145 µg/mL | first compound 2.5 µg/mL | first compound 4.29 µg/mL | first compound 5 µg/mL
partner 1.285 µg/mL | – | 0.954 | – | 0.983 | – | 0.948
partner 2 µg/mL | 0.93 | – | 0.945 | – | 0.89 | –
partner 2.57 µg/mL | – | 0.95 | – | 0.948 | – | 0.965
partner 4 µg/mL | 0.929 | – | 0.919 | – | 0.902 | –
partner 8 µg/mL | 0.774 | – | 0.805 | – | 0.751 | –

S. pneumoniae D39V [1], partner 5.14 µg/mL, one replicate
Details | fitness
first compound 1.25 µg/mL | 0.936
first compound 2.5 µg/mL | 0.973
first compound 5 µg/mL | 0.989

Details | Bliss interaction score
B. subtilis 168 | 0.0755
S. aureus DSM 20231 | 0.0482
S. aureus Newman | -0.0503
S. pneumoniae D39V [2] | 0.0483
